Laboratory results taken from patent US12458630B2, “Combination therapy for cancer” (The Regents of the University of California, priority 2020, dated 2025).

Tested on: KC6141 mouse PDAC cells
Test: Cell viability assay (CCK-8)
Type: cell-based
Details: 3 days; for cell viability vs vehicle: WT, Ikkα-KD, Nhe1-KD, Ikkα-KD;Nhe1-KD KC6141 cells
Method: Extracellular Matrix (ECM) Preparation. Skin fibroblasts were seeded on 6/12/96-well plates. One day after plating, cells were switched into DMEM (with pyruvate) with 10% dialysed FBS supplemented with or without 500 μM ^3H-proline and 100 μM Vitamin C. Cells were cultured for 6 days with media renewal every 24 h. After six days, skin fibroblasts were removed by washing in 1 ml or 500 μl or 100 μl per well PBS with 0.5% (v/v) Triton X-100 and 20 mM NH4OH. ECM was washed five times with PBS before plating KC6141 cells. The following day, KC6141 cells were switched into the indicated medium for 24 or 72 hrs.
Cell viability assay. Cell viability was determined with Cell Counting Kit-8 assay (CCK-8 assay kit, Glpbio). Cells were plated in 96-well plates at a density of 3000 cells (MIA PaCa-2) or 1500 cells (KC6141) per well and incubated overnight prior to treatment. EIPA (10 μM), MRT68921 (600 nM) or erlotinib (2 μM, Sigma) were added to the wells for 72 and 96 hrs. Next, 10 μL of CCK-8 was added to each well. The optical density was read at 450 nm using a microplate reader (FilterMax F5, Molecular Devices, USA) at day 0, 1, 2, 3, and 4. For glutamine-deprivation assays, cells in 96-well plates were rinsed briefly in PBS and incubated in the 0.2 mM glutamine. Glutamine-free DMEM medium was supplemented with 0.2 mM glutamine in the presence of 10% dialysed FBS and 25 mM HEPES. For some conditions, the medium was supplemented with a final concentration of 2% BSA (Fraction V, fatty-acid-, nuclease and protease-free, Calbiochem). For all experiments, media were replaced every 24 hrs. Viable cell counts were obtained using CCK-8 assay described as above.
In some embodiments, cells were plated in 96-well plates coated with or without ECM at a density of 3000 cells (MIA PaCa-2, 1444, 1305, COLO 357/FG) or 1500 cells (KC6141) per well and incubated overnight prior to treatment. EIPA (10.5 μM), IPI549 (600 nM), MBQ-167 (500 nM), MRT68921 (600 nM) or erlotinib (2 μM, Sigma), ML385 (10 μM, Sigma), HCQ (10 μM or 80 μM) or their combinations were added to the wells for 24, 72 or 96 hrs. Next, 10 μL of CCK-8 was added to each well. The optical density was read at 450 nm using a microplate reader (FilterMax F5, Molecular Devices, USA) at day 0, 1, 2, 3, and 4. For glutamine-deprivation assays, cells in 96-well plates were rinsed briefly in PBS and incubated in the 0.2 mM glutamine. Glutamine-free DMEM medium was supplemented with 0.2 mM glutamine in the presence of 10% dialyzed FBS and 25 mM HEPES. For glucose-deprivation assays, cells in 96-well plates were rinsed briefly in PBS and incubated in the 0.5 mM glucose. Glucose-free DMEM medium was supplemented with 0.5 mM glucose in the presence of 10% dialyzed FBS and 25 mM HEPES. For some conditions, the medium was supplemented with a final concentration of 2% BSA (Fraction V, fatty-acid-, nuclease and protease-free, Calbiochem). For all experiments, media were replaced every 24 hrs. Viable cell counts were obtained using CCK-8 assay described as above.

Row | SMILES | sensitivity to single agent (cell viability) (IKKα-deficient KC6141 cells) | cell viability enhanced by extracellular matrix (ECM) (WT and IKKα KD 6141 cells on ECM, 0.5 mM glucose, EIPA, IPI549 600 nM, MBQ-167 500 nM) | cell viability vs vehicle | cell growth, single agent (IKKα KD KC6141 cells, erlotinib 2 μM, MRT68921 600 nM)
1 | CCN(c1nc(N)c(C(=O)N=C(N)N)nc1Cl)C(C)C [EIPA, 5-(N-ethyl-N-isopropyl) amiloride] | very sensitive | suppressed | suppression of cell viability | 
2 | CN1CCc2cc(Nc3ncc(C4CC4)c(NCCCNC(=O)C4CCC4)n3)ccc2C1 [MRT68921] |  |  | suppression of cell viability | limited
